From patent US11052154B2, “Ras protein degradation inducing molecule and pharmaceutical composition” (Tokyo University of Science Foundation, priority 2016, dated 2021)

How the values were obtained:
SW1990 cells = assay: Apoptosis induction in SW1990 cells, FACS analysis (Annexin V/PI); type: cell-based, human; conditions: SW1990 cells expressing G12D mutant K-Ras, 24 hours after addition; FIGS. 6B, 7B
Protocol: In Example 7, apoptosis induction in a case where TUS-007, Ras-SOS, or Ras-SOS-NH2 was added to HeLa cells or SW1990 cells (human pancreatic cancer cells) had been added was evaluated by the FACS analysis. It is noted that in HeLa cells, the wild-type K-Ras protein (K-Ras-WT) is expressed, and in SW1990 cells, the G12D mutant K-Ras protein (K-Ras-G12D) is expressed.
HeLa cells or SW1990 cells were seeded in a 24-well plate at a cell density of 8×10^4 cells/well, and then cultured under conditions of 37° C. and 5 vol % CO2 for 16 hours.
After 16 hours from cell seeding, TUS-007, Ras-SOS, or Ras-SOS-NH2 were added to HeLa cells or SW1990 cells as follows. As a medium, a serum-free medium (37° C.) in which 1 mass % L-glutamine solution (Sigma-Aldrich) was added to D-MEM (high D-glucose, phenol red, sodium pyruvate (Wako Pure Chemical Industries, Ltd.)) was used. It is noted that the L-glutamine solution was added immediately before use. A DMSO solution containing TUS-007, Ras-SOS, or Ras-SOS-NH2 was mixed with the medium so that the concentration of DMSO was 1 vol %, and added to each well at 500 μL/well, and cultured under conditions of 37° C. and 5 vol % CO2. As a control, DMSO was used.
The medium was removed 24 hours after addition of TUS-007, Ras-SOS, or Ras-SOS-NH2, and then PBS was added to wash the cells. After removing PBS, trypsin (0.25 w/v % trypsin-1 mmol/L EDTA⋅4 Na solution with phenol red) (Wako Pure Chemical Industries, Ltd.) at 37° C. was added to each well at 200 μL/well, and cultured under conditions of 37° C. and 5 vol % CO2 for 1 minute. […]
A BD FACSCanto™ II (BD Biosciences) was used for flow cytometry. […] The proportion of Annexin V-positive and PI-negative cells was calculated using an analysis software FlowJo™ (TOMY Digital Biology Co., Ltd.), and the proportion was defined as a proportion of apoptosis cells.
In Example 8, apoptosis induction in a case where TUS-007, Ras-SOS-NH2, or erlotinib as an anticancer agent (EGFR inhibitor) was added to HeLa cells or SW1990 cells was evaluated by FACS analysis as in Example 7.

[1] = biological target: T1, G12D mutant K-Ras protein (Homo sapiens, UniProt P01116, G12D); assay: Degradation (knockdown) of G12D mutant K-Ras protein forcibly expressed in HeLa cells, FACS analysis; type: cell-based
T1 construct: expressed in transfected cells; host or cells: HeLa
T1 sequence (P01116 1-188 isoform P01116-2 G12D): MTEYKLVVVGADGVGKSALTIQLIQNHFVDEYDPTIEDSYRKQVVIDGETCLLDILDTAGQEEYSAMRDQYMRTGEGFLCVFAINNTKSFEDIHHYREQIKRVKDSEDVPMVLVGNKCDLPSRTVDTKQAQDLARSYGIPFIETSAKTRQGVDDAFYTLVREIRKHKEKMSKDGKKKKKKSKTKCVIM
Protocol: HeLa cells into which the plasmid had been introduced were seeded in a 24-well plate at a cell density of 4×10^4 cells/well, and then cultured under conditions of 37° C. and 5 vol % CO2 for 40 hours.
DMSO was used as a control.

With `CCC(C)[C@H](NC(=O)CCCCCCNC(=O)[C@H](CC(C)C)NC(=O)CNC(=O)c1cc(Cl)ccc1Cl)C(=O)Nc1ccc2[nH]c(Cc3c[nH]c4ccccc34)nc2c1` (stereo in doubt) [TUS-007] the “apoptosis induction (proportion of Annexin V-positive and PI-negative cells)” value (SW1990 cells) was “the effect of the apoptosis by TUS-007 was high at the same level as in the case of the HeLa cells”, the “degradation of the G12D mutant K-Ras protein when both TUS-007 and MLN2238 were added” value ([1]; HeLa cells, MLN2238 co-added, compared with TUS-007 alone, FIG. 3) was “G12D mutant and G12V mutant K-Ras protein degradation was inhibited” and the “degradation (knockdown) of the G12D mutant K-Ras protein (shift of GFP/DsRed ratio graph)” value ([1]; HeLa cells, vs control (DMSO), FIG. 3) was “degradation of the G12D mutant and the G12V mutant K-Ras protein was induced”. The “comparison of degradation induction among wild-type, G12D mutant and G12V mutant K-Ras protein” value ([1]; from the results of FIGS. 1 and 3) was “excellent in inducing the degradation of the G12D mutant K-Ras protein”.
